target: recombinant His-tag Wip1(2-420) protein (amino acids #2-420) (Homo sapiens (Human), UniProt O15297); test: Wip1(2-420) phosphatase enzyme FDP assay; assay type: biochemical; details: fluorescein diphosphate (FDP) substrate, RT 2 hours, fluorescence Ex485/Em535; read-out: WIP1 (Truncated 2-420) FDP Assay: IC50
Sequence (O15297 2-420): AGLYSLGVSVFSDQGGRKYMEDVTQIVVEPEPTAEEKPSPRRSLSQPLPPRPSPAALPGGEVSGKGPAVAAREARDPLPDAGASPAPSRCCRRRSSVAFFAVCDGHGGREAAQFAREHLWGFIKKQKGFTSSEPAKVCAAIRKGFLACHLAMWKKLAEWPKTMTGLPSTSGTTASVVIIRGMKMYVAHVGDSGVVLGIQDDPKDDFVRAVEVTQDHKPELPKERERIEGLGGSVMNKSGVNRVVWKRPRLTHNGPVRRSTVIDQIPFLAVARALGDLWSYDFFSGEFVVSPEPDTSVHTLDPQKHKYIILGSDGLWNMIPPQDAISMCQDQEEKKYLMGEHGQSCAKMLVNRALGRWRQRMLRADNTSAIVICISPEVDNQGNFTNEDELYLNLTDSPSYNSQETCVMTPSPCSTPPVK

Question: For `Cc1ncc(Cl)cc1N[C@@H](C)c1ccc(C(=O)N[C@@H](CCC(C)(C)C)C(=O)NC2CC2)s1` [Compound 161, (2S)-2-({5-[(1S)-1-[(5-chloro-2-methylpyridin-3-yl)amino]ethyl]thiophen-2-yl}formamido)-N-cyclopropyl-5,5-dimethylhexanamide], which IC50 is on record?
Answer: 11 nM

Question: `Cc1ncc(Cl)cc1N[C@@H](C)c1ccc(C(=O)N[C@@H](CC2CCC3CC32)C(=O)NC23CC(C2)C3)s1` (stereo partly drawn) [Compound 110, (2S)-N-{bicyclo[1.1.1]pentan-1-yl}-3-{bicyclo[3.1.0]hexan-2-yl}-2-({5-[(1S)-1-[(5-chloro-2-methylpyridin-3-yl)amino]ethyl]thiophen-2-yl}formamido)propanamide] was tested. Which IC50 did it give?
Answer: 6 nM

Question: For `C[C@H](c1ccc(C(=O)N[C@@H](CC2CCCC2)C(=O)NC2CC2)s1)N(C)c1cncc(Cl)c1` [Compound 90, (2S)-2-({5-[(1R)-1-[(5-chloropyridin-3-yl)(methyl)amino]ethyl]thiophen-2-yl}formamido)-3-cyclopentyl-N-cyclopropylpropanamide], which IC50 is on record?
Answer: 11 nM

Question: With `Cc1ncc(Cl)cc1N[C@@H](C)c1ccc(C(=O)N[C@@H](CC2CCCCC2)C(=O)N[C@H]2C[C@H](F)C2)s1` [Compound 108, (2S)-2-({5-[(1S)-1-[(5-chloro-2-methylpyridin-3-yl)amino]ethyl]thiophen-2-yl}formamido)-3-cyclohexyl-N-[(1r,3r)-3-fluorocyclobutyl]propanamide] as the compound, how does the IC50 read?
Answer: 5 nM

Question: How did the IC50 turn out when `Cc1ncc(Cl)cc1N[C@@H](C)c1ccc(C(=O)N[C@@H](CC2CCCC2)C(=O)Nc2ccc3ncccc3c2)s1` [Compound 243, (2S)-2-({5-[(1S)-1-[(5-chloro-2-methylpyridin-3-yl)amino]ethyl]thiophen-2-yl}formamido)-3-cyclopentyl-N-(quinolin-6-yl)propanamide] was run?
Answer: 4 nM

Question: With `Cc1ncc(Cl)cc1N[C@@H](C)c1ccc(C(=O)N[C@H](C(=O)NC23CC(C2)C3)C(C)(C)C)s1` [Compound 246, (2S)-N-{bicyclo[1.1.1]pentan-1-yl}-2-({5-[(1S)-1-[(5-chloro-2-methylpyridin-3-yl)amino]ethyl]thiophen-2-yl}formamido)-3,3-dimethylbutanamide] as the compound, how does the IC50 read?
Answer: 2210 nM

Question: Which IC50 does the source give for `Cc1ncc(Cl)cc1N[C@@H](C)c1ccc(C(=O)N[C@@H](CC2CCCC2)C(=O)NC2CCC(C#N)C2)s1` (stereo partly drawn) [Compound 115, (2S)-2-({5-[(1S)-1-[(5-chloro-2-methylpyridin-3-yl)amino]ethyl]thiophen-2-yl}formamido)-N-(3-cyanocyclopentyl)-3-cyclopentylpropanamide] here?
Answer: 11 nM

Question: Which IC50 does the source give for `Cc1ncc(Cl)cc1N[C@@H](C)c1ccc(C(=O)N[C@@H](CC2CCCC2)C(=O)Nc2cnn(CCN(C)C)c2)s1` [Compound 151, (2S)-2-({5-[(1S)-1-[(5-chloro-2-methylpyridin-3-yl)amino]ethyl]thiophen-2-yl}formamido)-3-cyclopentyl-N-{1-[2-(dimethylamino)ethyl]-1H-pyrazol-4-yl}propanamide] here?
Answer: 6 nM

Question: Which IC50 does the source give for `Cc1ncc(Cl)cc1N[C@@H](Cc1ccccc1)c1ccc(C(=O)N[C@@H](CC2CCCC2)C(=O)NC23CC(C2)C3)s1` [Compound 216, (2S)-N-{bicyclo[1.1.1]pentan-1-yl}-2-({5-[(1S)-1-[(5-chloro-2-methylpyridin-3-yl)amino]-2-phenylethyl]thiophen-2-yl}formamido)-3-cyclopentylpropanamide] here?
Answer: 12 nM

Question: How did the IC50 turn out when `COC(=O)c1ncc(Cl)cc1N[C@H](C)c1ccc(C(=O)N[C@@H](CC2CCCC2)C(=O)NC2CC2)s1` [Compound 103, methyl 5-chloro-3-{[(1R)-1-(5-{[(1S)-2-cyclopentyl-1-(cyclopropylcarbamoyl)ethyl]carbamoyl}thiophen-2-yl)ethyl]amino}pyridine-2-carboxylate] was run?
Answer: 520 nM

Question: `COCCN1CCCc2cc(NC(=O)[C@H](CC3CCCC3)NC(=O)c3ccc([C@H](C)Nc4cc(Cl)cnc4C)s3)ccc21` [Compound 129, (2S)-2-({5-[(1S)-1-[(5-chloro-2-methylpyridin-3-yl)amino]ethyl]thiophen-2-yl}formamido)-3-cyclopentyl-N-[1-(2-methoxyethyl)-1,2,3,4-tetrahydroquinolin-6-yl]propanamide] was tested. Which IC50 did it give?
Answer: 7 nM

Question: With `CC(Nc1cc(Cl)cnc1C(C)(C)O)c1ccc(C(=O)N[C@@H](CC2CCCC2)C(=O)NC2CC2)s1` (stereo partly drawn) [Compound 203, (2S)-2-{[5-(1-{[5-chloro-2-(2-hydroxypropan-2-yl)pyridin-3-yl]amino}ethyl)thiophen-2-yl]formamido}-3-cyclopentyl-N-cyclopropylpropanamide] as the compound, how does the IC50 read?
Answer: 17 nM

Question: With `COc1cccc(-c2ncc(Cl)cc2N[C@@H](C)c2ccc(C(=O)N[C@@H](CC3CCCC3)C(=O)NC3CC3)s2)c1` [Compound 267, (2S)-2-({5-[(1S)-1-{[5-chloro-2-(3-methoxyphenyl)pyridin-3-yl]amino}ethyl]thiophen-2-yl}formamido)-3-cyclopentyl-N-cyclopropylpropanamide] as the compound, how does the IC50 read?
Answer: 10 nM

Question: How did the IC50 turn out when `C[C@H](Nc1cccc(Cl)c1)c1ncc(C(=O)N[C@@H](CC2CCCC2)C(=O)NC2CC2)s1` [Compound 124, (2S)-2-({2-[(1S)-1-[(3-chlorophenyl)amino]ethyl]-1,3-thiazol-5-yl}formamido)-3-cyclopentyl-N-cyclopropylpropanamide] was run?
Answer: 905 nM

Question: With `COc1ccc(Cl)cc1N[C@@H](C)c1ccc(C(=O)N[C@@H](CC2CCCC2)C(=O)NC2CC2)s1` [Compound 254, (2S)-2-({5-[(1S)-1-[(5-chloro-2-methoxyphenyl)amino]ethyl]thiophen-2-yl}formamido)-3-cyclopentyl-N-cyclopropylpropanamide] as the compound, how does the IC50 read?
Answer: 11 nM

Question: For `Cc1ncc(Cl)cc1N[C@@H](C)c1ccc(C(=O)N[C@@H](C[C@@H]2CCC3CC32)C(=O)NC23CC(C2)C3)s1` (stereo partly drawn) [Compound 245, (2S)-N-{bicyclo[1.1.1]pentan-1-yl}-3-[(2S)-bicyclo[3.1.0]hexan-2-yl]-2-({5-[(1S)-1-[(5-chloro-2-methylpyridin-3-yl)amino]ethyl]thiophen-2-yl}formamido)propanamide], which IC50 is on record?
Answer: 10 nM

Question: `Cc1ncc(Cl)cc1N[C@H](Cc1cnn(C)c1)c1ccc(C(=O)N[C@@H](CC2CCCC2)C(=O)NC2CC2)s1` [Compound 170, (2S)-2-({5-[(1R)-1-[(5-chloro-2-methylpyridin-3-yl)amino]-2-(1-methyl-1H-pyrazol-4-yl)ethyl]thiophen-2-yl}formamido)-3-cyclopentyl-N-cyclopropylpropanamide] was tested. Which IC50 did it give?
Answer: 217 nM

Question: Which IC50 does the source give for `Cc1ncc(Cl)cc1N[C@@H](C)c1ccc(C(=O)N[C@H](C(=O)NC2CC2)C2CCCCC2)s1` [Compound 174, (2S)-2-({5-[(1S)-1-[(5-chloro-2-methylpyridin-3-yl)amino]ethyl]thiophen-2-yl}formamido)-2-cyclohexyl-N-cyclopropylacetamide] here?
Answer: 37 nM

Question: With `C[C@H](c1ccc(C(=O)N[C@@H](CC2CCCC2)C(=O)NC2CC2)s1)N1CCN(C)c2ccc(Cl)cc21` [Compound 240, (2S)-2-({5-[(1R)-1-(7-chloro-4-methyl-1,2,3,4-tetrahydroquinoxalin-1-yl)ethyl]thiophen-2-yl}formamido)-3-cyclopentyl-N-cyclopropylpropanamide] as the compound, how does the IC50 read?
Answer: 154 nM

Question: `Cc1ncc(Cl)cc1N[C@@H](Cn1cccn1)c1ccc(C(=O)N[C@@H](CC2CCCC2)C(=O)NC2CC2)s1` [Compound 166, (2S)-2-({5-[(1S)-1-[(5-chloro-2-methylpyridin-3-yl)amino]-2-(1H-pyrazol-1-yl)ethyl]thiophen-2-yl}formamido)-3-cyclopentyl-N-cyclopropylpropanamide] was tested. Which IC50 did it give?
Answer: 7 nM
